# pKi: −log10 of the molar value.
# Key:
# [1] = test system: Mycobacterium tuberculosis; set-up: method as in PMID 26061192; settings: cited from earlier work
# [2] = test system: MT-4 cell line; assay: Cytotoxicity in vitro in MT-4 cells (propidium iodide uptake, automatic cell counter); format: cell-based; settings: highest concentration tested
# Procedure: We tested the compounds for potential cytotoxicity in the MT-4 cell line using an automatic cell counter (ChemoMetec). The number of live and dead cells was counted in the control cultures, and the cultures were treated with compound (6), (7), or (19). Compounds (6) and (7) were tested at concentrations of 0.136–33 μM (0.035–9 μg/mL), and compound (19) was tested at concentrations of 0.272–66 μM (0.119–28 μg/mL).
# We discriminated live from dead cells by evaluating propidium iodide uptake according to the manufacturer’s instructions. We collected and analyzed data using the Nucleoview software (version 1.0,ChemoMetec).
# [3] = test system: human tonsillar tissue; assay: Toxicity ex vivo in human tonsillar tissue (flow cytometry of cell phenotypes); format: cell-based; settings: 12 days culture
# Procedure: The cytotoxicity of compounds (6), (7), and (19) was determined in human tonsillar tissues. A total of 27 tissue blocks were incubated with compound (19) (20 μg/mL) or with compound (6) or (7) ( 5 μg/mL) for each experimental point. Tissue blocks were cultured for 12 days. Then, the cells were isolated from the control and treated and stained with combinations of fluorescence- labeled antibodies against CD3-QD605, CD4- QD655, CD8-QD705, CD25-APC, CD38-PE, HLA-DRAPC- Cy7, CXCR4-Brilliant violet 421, CCR5-PR-Cy5 CD45RA-FITC, and CCR7-PE-Cy7 (Caltag Laboratories; Biolegend). We determined the numbers of cells of different phenotypes in isolated suspensions using flow cytometry as previously described. The volume of an analyzed suspension was controlled by means of Trucount beads (Becton Dickinson); the number of counted cells was normalized to the weight of the tissue fragments used for cell isolation.
# [4] = biological target: T1, HIV-1 reverse transcriptase (p66/p51 heterodimer) (Human immunodeficiency virus type 1 group M subtype B, UniProt P04585); assay: Inhibition of recombinant HIV-1 reverse transcriptase (Dixon's method, noncompetitive); format: biochemical; settings: Dixon's method for noncompetitive inhibitors; read-out: Ki (inhibition constant)
# T1 construct: recombinant HIV-1 reverse transcriptase (p66/p51 heterodimer); made in house
# Procedure: Isolation of recombinant HIV-1 reverse transcriptase (p66/p51 heterodimer) and determination of its activity were performed as described earlier. The inhibition constant (Ki), calculated according to Dixon’s method for noncompetitive inhibitors, was used as a quantitative measure of the inhibitory activity of the compounds. Nevirapine, a first-generation HIV NNRTI, was used as a control.
Compound,Concentration of total inhibition of mycobacterium growth [1],Maximum concentration at which neither cytotoxic nor cytostatic effect was observed [2],pKi [4],also measured
Cc1cccc(Nc2c[nH]c(=O)[nH]c2=O)c1 [Compound 2],5 to 40 µg/mL,,,
Cc1ccc(Nc2c[nH]c(=O)[nH]c2=O)cc1 [Compound 3],5 to 40 µg/mL,,,
CCCCc1ccc(Nc2c[nH]c(=O)[nH]c2=O)cc1 [Compound 6],5 to 40 µg/mL,≥ 33 µM,,"Cytotoxicity on different cell types in the tissue (T, B, CD4+, CD8+ and CD4+ subgroups) ([3]; 5 μg/mL): lack of significant death rates"
CCCCOc1ccc(Nc2c[nH]c(=O)[nH]c2=O)cc1 [Compound 7],5 to 40 µg/mL,≥ 33 µM,,"Cytotoxicity on different cell types in the tissue (T, B, CD4+, CD8+ and CD4+ subgroups) ([3]; 5 μg/mL): lack of significant death rates"
CCCCc1ccc(Nc2n[nH]c(=O)[nH]c2=O)cc1 [Compound 10],5 to 40 µg/mL,,,
O=c1[nH]c(=O)n(C2C=CC(O)C2)cc1Nc1ccc(Oc2ccccc2)cc1 (stereo not drawn) [Compound 15],,,3.92,
CCCCOc1ccc(Nc2cn(C3C=CC(O)C3)c(=O)n(C3C=CC(O)C3)c2=O)cc1 (stereo not drawn) [Compound 19],5 to 40 µg/mL,≥ 66 µM,,"Cytotoxicity on different cell types in the tissue (T, B, CD4+, CD8+ and CD4+ subgroups) ([3]; 20 μg/mL): lack of significant death rates"
"O=c1c(Nc2ccccc2)cn(C2C=CC(O)C2)c(=O)n1Cc1ccccc1 (stereo not drawn) [Compound 21, 1-(4’-Hydroxy-2’-cyclopenten-1’-yl)-3-benzyl-5-(phenylamino) uracil]",,,< 4.00,
"Cc1ccc(Nc2cn(C3C=CC(O)C3)c(=O)n(Cc3ccccc3)c2=O)cc1 (stereo not drawn) [Compound 22, 1-(4’-Hydroxy-2’-cyclopenten-1’-yl)-3-benzyl-5-(p-methylphenylamino) uracil]",,,4.22,
